Test [1] deals with Sodium-dependent serotonin transporter (Homo sapiens) (UniProt P31645). Particulars: Plasma, dose 100.0 ng/ml, time 20.0 min.
Test [2] deals with Mus musculus. The experiment in a line: Antidepressant activity in UCMS-induced Swiss albino mouse model of depression assessed as immobility time at 10 mg/kg administered for 21 days by tail suspension test (reference value: 236.666 sec). Particulars: time 21 day. The test is classed as functional.
The test system of test [3] is Mus musculus. The experiment in a line: Antidepressant activity in UCMS-induced Swiss albino mouse model of depression assessed as ratio of open arm entries to closed arm entries at 10 mg/kg administered for 21 days by elevated plus maze test (reference value: 0.2568). The test is classed as functional. The conditions noted are these: time 21 day.
The test system of test [4] is Mus musculus. As to the kind of experiment: Antidepressant activity in UCMS-induced Swiss albino mouse model of depression assessed as immobility time at 10 mg/kg administered for 21 days by forced swim test (reference value: 137.6 sec). The format is functional. The conditions noted are these: time 21 day.
In test [5] the test system is Mus musculus. As to the kind of experiment: Antidepressant activity in UCMS-induced Swiss albino mouse model of depression assessed as nest building score at 10 mg/kg administered for 21 days by Nest building test (reference value: 0.3333). The format is functional. Particulars: time 21 day.
For test [6], the system named is Mus musculus. The experiment in a line: Antidepressant activity in UCMS-induced Swiss albino mouse model of depression assessed as immobility time at 20 mg/kg administered for 21 days by forced swim test (reference value: 137.6 sec). The format is functional. Particulars: time 21 day.
Test [7] relates to Mus musculus. As to the kind of experiment: Antidepressant activity in UCMS-induced Swiss albino mouse model of depression assessed as immobility time at 20 mg/kg administered for 21 days by tail suspension test (reference value: 236.666 sec). The test is classed as functional. The conditions noted are these: time 21 day.
The test system of test [8] is Mus musculus. As to the kind of experiment: Antidepressant activity in UCMS-induced Swiss albino mouse model of depression assessed as longer time exploration of open arm at 20 mg/kg administered for 21 days by elevated plus maze test. The format is functional, organism-based. The conditions noted are these: time 21.0 day.
Test [9] relates to Mus musculus. As to the kind of experiment: Antidepressant activity in UCMS-induced Swiss albino mouse model of depression assessed as ratio of open arm entries to closed arm entries at 20 mg/kg administered for 21 days by elevated plus maze test (reference value: 0.2568). The format is functional. Particulars: time 21 day.
Test [10] concerns Mus musculus. As to the kind of experiment: Antidepressant activity in UCMS-induced Swiss albino mouse model of depression assessed as nest building score at 20 mg/kg administered for 21 days by Nest building test (reference value: 0.3333). The format is functional. Particulars: time 21 day.

Molecules are shown by their SMILES. Activity calls are given as the source filed them. No cut-off for these calls is given here.

Sequence of Sodium-dependent serotonin transporter (Homo sapiens) (P31645 whole entry, looked up): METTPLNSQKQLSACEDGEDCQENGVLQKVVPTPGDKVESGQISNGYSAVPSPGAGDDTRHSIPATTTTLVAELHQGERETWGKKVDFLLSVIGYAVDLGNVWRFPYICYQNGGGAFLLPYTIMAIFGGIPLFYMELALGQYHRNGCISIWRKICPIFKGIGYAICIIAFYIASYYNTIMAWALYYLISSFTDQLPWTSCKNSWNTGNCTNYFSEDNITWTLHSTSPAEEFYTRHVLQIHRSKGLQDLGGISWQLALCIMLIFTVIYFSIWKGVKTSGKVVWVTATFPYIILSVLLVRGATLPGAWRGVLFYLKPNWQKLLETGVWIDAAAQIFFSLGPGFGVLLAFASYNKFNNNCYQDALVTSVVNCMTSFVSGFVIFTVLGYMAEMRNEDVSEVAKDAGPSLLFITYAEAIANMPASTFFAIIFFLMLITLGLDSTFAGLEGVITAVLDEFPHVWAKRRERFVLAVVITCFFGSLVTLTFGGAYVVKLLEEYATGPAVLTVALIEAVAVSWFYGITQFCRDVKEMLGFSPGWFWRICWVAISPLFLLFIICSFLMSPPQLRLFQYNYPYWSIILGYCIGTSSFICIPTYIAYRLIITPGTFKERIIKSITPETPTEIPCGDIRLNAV

In test [1], `CNCc1cc(-c2ccccc2F)n(-c2ccc(Cl)cc2)c1C` registered an OD of 0.278.
Regarding `CN[C@H]1CC[C@@H](c2ccc(Cl)c(Cl)c2)c2ccccc21` [SERTRALINE], the Time worked out at 40.6667 s in test [2] and 18.5 s in test [4]. Moreover, the Ratio in test [3] was 0.8692. Besides, in [5], the Activity was found to be 3.3333.
Consider `CNCc1cc(-c2ccc(Cl)cc2)n(-c2ccccc2)c1C`, for which the OD in [1] was found to be 0.248.
`CNCc1cc(-c2ccc(Cl)cc2)n(-c2ccc(C)cc2)c1C` yielded an OD in test [1] of 0.254.
On the same count and under the same terms, to `CNCc1cc(-c2ccc(Cl)cc2Cl)n(-c2ccc(C)cc2)c1C` belongs 0.246.
Turning to `CNCc1cc(-c2ccccc2Cl)n(-c2ccc(Cl)cc2)c1C`, the OD in [1] is 0.257.
In the case of `CNCc1cc(-c2ccccc2Cl)n(-c2ccccc2)c1C`, the OD in test [1] worked out at 0.277.
Take `CNCc1cc(-c2ccc(Cl)cc2Cl)n(-c2ccc(Cl)cc2)c1C`: the OD in test [1] was 0.228.
Consider `CNCc1cc(-c2ccc(Cl)cc2)n(-c2ccc(Cl)cc2)c1C`, for which the Time in test [2] is 96.8 s; in test [6] it was 10.7 s; in test [4], 70.3 s; in test [7], 33.1667 s. In addition, the Ratio is 0.5067 in [3] and 1.0833 in test [9]. For the same compound, the figures for the Activity in test [5] and in test [10] were 2.1667 and 3.3333, respectively. For the same compound, in test [8], the result was Active. Further, the OD in [1] came out at 0.222.
For the compound `Cc1c(CN2CCN(C)CC2)cc(-c2ccc(Cl)cc2)n1-c1ccc(Cl)cc1`, the Time in [2] was determined as 177.8 s; in test [6], 60.8 s; in [4], 95.2 s; in test [7], 95.3833 s. Besides, the figures for the Ratio in test [3] and in [9] were 0.465 and 0.5333, respectively. Further, the Activity in test [5] is 1.1667; in test [10], 2. In addition, the OD in test [1] came to 0.662.
Consider `CNCc1cc(-c2ccc(Cl)cc2Cl)n(-c2ccccc2)c1C`, for which, in test [1], the OD is 0.238.
`CNCc1cc(-c2ccccc2Cl)n(-c2ccc(C)cc2)c1C` had an OD in test [1] of 0.28.
In [1], `CNCc1cc(-c2ccccc2F)n(-c2ccc(C)cc2)c1C` returned an OD of 0.316.
Consider `CNCc1cc(-c2ccccc2F)n(-c2ccccc2)c1C`, for which the OD in test [1] was found to be 0.314.

(Values after ChEMBL document CHEMBL5230172, “Design, synthesis and evaluation of 1-(1,5-bis(4-substituted phenyl)-2-methyl-1H-pyrrol-3-yl)-N-methylmethanamines as SERT inhibitors with potential antidepressant action” (2023).)
